Results published in patent US20220143041A1, “COMBINED THERAPY FOR NMDAR ANTAGONIST-RESPONSIVE NEUROPSYCHIATRIC DISORDERS” (Glytech LLC, priority 2017, published 2022).
Entries after “also recorded” stand apart in the source; their conditions may differ.

What was measured:
mice [1] = assay: Marble burying test; format: in vivo; conditions: for Marble burying effect relative to racemic mirtazapine: 1-10 mg/kg IP
From the text: Distance traveled during the test was captured by cameras and quantified using Video Tracker Software (ViewPoint Life Sciences Software, France). At the end of the test mice were removed from the cages and the number of unburied marbles was counted. A marble was considered buried if it was covered at least two thirds with bedding. An effect was considered significant if p<0.05.
from the cages and the number of unburied marbles was counted. A marble was considered buried if it was covered at least two thirds with bedding.
The following compounds were used. […] This compound was dissolved in 20% cyclodextrin and administered IP 30 min prior to test at a dose volume of 10 ml/kg. • Combination DSC (300 mg/kg)+Mirtazapine ([…]) was administered IP as a cocktail in a single injection 30 minutes prior to test at a dose volume of 10 ml/kg.
Mirtazapine is a racemic mix of separate R(−) and S(+) isomers. A follow-up study evaluated the relative effects of the two isomers independently. Methods are the same as for Example 3.

Male BalbC/J mice = assay: Forced swim test (FST), immobility time; format: in vivo; conditions: for Immobility time in the rodent forced swim test, Mean: 6-min test, IP 30 min prior, DCS 300 mg/kg, mirtazapine or isomer 5 mg/kg, alone or combined; for FST additional beneficial effects in combination with DCS / FST effect of combined antidepressant and DCS vs either agent alone / DCS alone: agent (dose) + DCS 300 mg/kg IP, FIG. 2; for Effect on immobility in the forced swim test vs control: DCS alone
rodent = conditions: Freynhagen et al.; cited from earlier work
[2] = test system: symptoms of major depression; conditions: 250 mg/day; cited from earlier work
NMDAR = target: T1, NMDAR (Homo sapiens, UniProt Q05586); conditions: in vivo; cited from earlier work
T1 construct: from tissue; host or cells: endogenous receptors of the treated subject (brain), in vivo

[3] = Pharmacokinetics of D-cycloserine in humans (literature)
[4] = cited from earlier work
mice [5] = conditions: mice (Carlsson et al.); cited from earlier work
Male C57BL/6J mice = assay: Open field test, locomotor activity; conditions: vs vehicle
[6] = Pharmacokinetics of D-cycloserine in rodents (plasma level, UPLC/MS/MS); format: in vivo; conditions: mice
Procedure: For this study, male C57BL/6J mice (8 weeks old) from Jackson Laboratories (Bar Harbor, Me.) were used.
For each treatment group a total of 12 mice were dosed: 4 mice were collected at 30, 60 and 120 min. Mean plasma level was computed over the 30-60 min time period.

[7] = FIG. 3, IP 30 min prior, paroxetine 5, mirtazapine 5.5, D-cycloserine 30 and 300 mg/kg, combination 300 + 5.5 mg/kg
[8] = FIG. 4, IP, paroxetine 5, mirtazapine and S-mirtazapine 1, 2.5, 5, 10, R-mirtazapine 10 mg/kg
[9] = 500 mg, corresponding to AUC over 24 hr (Zhu et al.)
[10] = humans, 250 mg PO every 12 hrs (Park et al.)
[11] = humans, 500 mg, fasting (Zhu et al.)
[12] = patients, mean dose 8.8 mg/kg, mostly 500 mg/day (Hung et al.)

## CN1CCN2c3ncccc3Cc3ccccc3C2C1 (racemic) [mirtazapine]
Mice [1]; [7]
  Number of marbles buried compared to vehicle: significantly reduced
Mice [1]; [8]
  Number of marbles buried compared to vehicle: significantly reduced
Male BalbC/J mice
  Immobility time in the rodent forced swim test, Mean: 92.30 s
  FST additional beneficial effects in combination with DCS: addition beneficial effects
rodent
  Effect in a rodent nociception assay: biphasic effects

## N[C@@H]1CON=C1O [DCS, 3-Isoxazolidinone, 4-amino-, (4R)-(9CI)]
Mice [1]; [7]
  Number of marbles buried compared to vehicle: did not affect
[2]
  Effect on symptoms of major depression: without significant effect
NMDAR
  Plasma concentrations associated with antagonist effects: > 25 µg/mL
  Plasma concentrations associated with primarily agonist effects: < 10 µg/mL
  Plasma levels with increased liability for toxicity: > 35000 ng/mL
Male BalbC/J mice
  Immobility time in the rodent forced swim test, Mean: 42.08 s
Male BalbC/J mice; 30 mg/kg (FIG. 1, PO)
  Effect on immobility in the forced swim test vs control: no significant effect
Male BalbC/J mice; doses of 100 mg/kg or above (FIG. 1, PO)
  Effect on immobility in the forced swim test vs control: statistically significant (p<0.001) reduction
[3]; 250 mg PO every 12 hrs, corresponding to AUC over 12 hrs (Park et al.)
  Mean plasma level: 20.2 microgram/mL
[3]; [9]
  Median sustained plasma level: 8.9 microgram/mL
  Sustained plasma level, range: 6.8-14.7 microgram/mL
[4]; [10]
  Mean AUC over 12 hrs: 242.3 µg·h/mL
  Mean Cmax: 24.9 microgram/mL
[4]; [11]
  AUC over 24 hr, range: 163-352 microgram-hr/mL
  Cmax, range: 12.1-30.6 microgram/mL
  Median AUC over 24 hr: 214 microgram-hr/mL
  Median Cmax: 14.8 microgram/mL
[4]; humans, summary of PK studies
  Sustained plasma level following 500 mg administration: below 25 microgram/mL
[4]; [12]
  DCS concentration at 2 hr after dosing: 19.7 microgram/mL
  DCS concentration at 6 hr after dosing: 18.1 microgram/mL
Mice [5]
  Effect on locomotor stimulation by a low dose of MK-801: potentiated
Male C57BL/6J mice; DCS 30 mg/kg IP
  Mean distance travelled over 30 min (locomotor activity): 4432.1
Male C57BL/6J mice; DCS 30 mg/kg IP, listed as D-cycloserine
  Mean distance travelled over 30 min (locomotor activity): not significantly affected
Male C57BL/6J mice; DCS 300 mg/kg IP
  Mean distance travelled over 30 min (locomotor activity): 7588.5
Male C57BL/6J mice; DCS 300 mg/kg IP, listed as D-cycloserine
  Mean distance travelled over 30 min (locomotor activity): significantly increased
Male C57BL/6J mice; DCS 1000 mg/kg IP
  Mean distance travelled over 30 min (locomotor activity): 9049.8
Male C57BL/6J mice; DCS 1000 mg/kg IP, listed as D-cycloserine
  Mean distance travelled over 30 min (locomotor activity): significantly increased
[6]; D-cycloserine 30 mg/kg IP
  Mean plasma levels over 30-60 min: below 25 microgram/mL
[6]; D-cycloserine 30 mg/kg IP, listed as D-cycloserine
  Mean plasma levels over 30-60 min: 24.89 microgram/mL
[6]; D-cycloserine 100 mg/kg IP
  Mean plasma levels over 30-60 min: 74.92 microgram/mL
[6]; D-cycloserine 500 mg/kg IP
  Mean plasma levels over 30-60 min: 375.44 microgram/mL
[6]; D-cycloserine 1000 mg/kg IP
  Mean plasma levels over 30-60 min: 510.73 microgram/mL
[6]; male, C57BL/6J, mouse, in vivo, IP, read-out: Maximum tolerated dose
  MTD: 500 to 1000 mg/kg
[6]; suggested from maximum tolerated dose
  Maximum tolerated blood level: approximately 500 ug/mL

## Fc1ccc([C@@H]2CCNC[C@H]2COc2ccc3c(c2)OCO3)cc1 [Paroxetine]
Mice [1]; [7]
  Number of marbles buried compared to vehicle: significantly reduced
Mice [1]; [8]
  Number of marbles buried compared to vehicle: significantly reduced

## CN1CCN2c3ncccc3Cc3ccccc3[C@@H]2C1 [R-mirtazapine, R(−)mirtazapine]
Mice [1]; FIG. 4
  Marble burying effect relative to racemic mirtazapine: less robust
Mice [1]; [8]
  Number of marbles buried compared to vehicle: significantly reduced
Mice [1]; FIG. 4, R-mirtazapine 1, 2.5 and 5 mg/kg IP
  Number of marbles buried compared to vehicle: did not affect
Mice [1]; FIG. 4 legend
  Relative effects of R- and S-isomers of mirtazapine on marble burying (FIG. 4 legend): greater effects of R- vs S-isomer
Male BalbC/J mice; 5 mg/kg, in absence and presence of DCS, not statistically different
  FST reduction in immobility, R- vs racemic mirtazapine: numerically greater
Male BalbC/J mice
  Immobility time in the rodent forced swim test, Mean: 68.40 s
rodent
  Effect in a rodent nociception assay: only anti-nociceptive effects

## CN1CCN2c3ncccc3Cc3ccccc3[C@H]2C1 [S-mirtazapine, S(+)mirtazapine]
Mice [1]; FIG. 4
  Marble burying effect relative to racemic mirtazapine: significantly more robust
Mice [1]; [8]
  Number of marbles buried compared to vehicle: significantly reduced
Mice [1]; IP 30 min prior
  Number of marbles buried, combination with DSC 300 mg/kg vs agent 2.5 mg/kg alone: floor level effects
Male BalbC/J mice
  Immobility time in the rodent forced swim test, Mean: 117.60 s
rodent
  Effect in a rodent nociception assay: pro-nociceptive effects

## CC(NC(C)(C)C)C(=O)c1cccc(Cl)c1 (centres unmarked) [bupropion]
Male BalbC/J mice
  FST additional beneficial effects in combination with DCS: addition beneficial effects
  FST effect of combined antidepressant and DCS vs either agent alone / DCS alone: significantly larger than with either agent alone; also recorded: effects greater than DCS alone

## CNCC[C@H](Oc1cccc2ccccc12)c1cccs1 [duloxetine]
Male BalbC/J mice
  FST additional beneficial effects in combination with DCS: addition beneficial effects
  FST effect of combined antidepressant and DCS vs either agent alone / DCS alone: significantly larger than with either agent alone; also recorded: effects greater than DCS alone

## CNCCC(Oc1ccc(C(F)(F)F)cc1)c1ccccc1 (centres unmarked) [fluoxetine]
Male BalbC/J mice
  FST additional beneficial effects in combination with DCS: addition beneficial effects

## CN[C@H]1CC[C@@H](c2ccc(Cl)c(Cl)c2)c2ccccc21 [sertraline]
Male BalbC/J mice
  FST additional beneficial effects in combination with DCS: addition beneficial effects
  FST effect of combined antidepressant and DCS vs either agent alone / DCS alone: significantly larger than with either agent alone; also recorded: effects greater than DCS alone

## COc1ccc(C(CN(C)C)C2(O)CCCCC2)cc1 (centres unmarked) [venlafaxine]
Male BalbC/J mice
  FST additional beneficial effects in combination with DCS: addition beneficial effects

## Cc1ccc(Sc2ccccc2N2CCNCC2)c(C)c1 [vortioxetine]
Male BalbC/J mice
  FST additional beneficial effects in combination with DCS: addition beneficial effects
